Entries after “also recorded” stand apart in the source; their conditions may differ.
B1: cellodextrin phosphorylase from Clostridium stercorarium (CsCDP) (Thermoclostridium stercorarium subsp. stercorarium DSM 8532) (protein)
chain: MRYGYFDEKAREYVITRPDTPTPWINYIGNGKYGGIVTNTGGGYSFHKDPQNRRITRYRYNNLPTDRPGRYIYVRDRLTGEYWNPGYQPVQRKLDSYRCRHGMGYTVLEGEYKGIAADVTYFVPDDRDFEIWLVQIRNLCHVERNLQVFSYAEFCFWDAIMDQQNVDWVQQINQGRYEDRLITWHPHHFKDACAFFATNAEINSFDTNLEAFIGRYRCESNPIAVETGACSNSVSYRMNGVGAFCIDVNLKPGEEREIIFILGFTENKSTIRDEIRDYLNVEYAKEALKRLKDSWEEYLDKLQIETPDRETNLFVNTWNQYQCKITFNWSRFVSMYQLGLGRGIGIRDSAQDTLGVMHSIPELAGGLIKRLIHCQYTDGRVYHLFFPLTGEGGIGDAPVVKFDWYSDDHLWLPIAANAYLKETANFDFLESVVPYNDNKTEGTVWEHLNRAMEFTYNHRGPHGLALIGRADWNDTLNLDMGNGIAESVFTSMLFCRAALEMIQMAEYTGQKDLATKYRYWYDEMKKAINEWCWDGEWYIRAFDDEGNVLGSGKNRYGKIFINSQSWAVLSMVAPEEYAKKCLESVYRHLNTKYGIVKVYPAYPEYNPKIGGMTTYPPGAKENGGIFAHTNPWVMIAECMMGNGRRAYQYYRQILPLTRNDDADLLEVEPYVYCQNILGKEHPQFGIGRNSWLTGTAAWNMVAVSQYILGIRPEYDGLTVDPCIPPDWKGFKVRRIFRGCVYNIEVRNPEGVSRGVKKIVVDGVETDKIPVKPAGTVCECVVIMG
B2: CsCDP: recombinant cellodextrin phosphorylase from Clostridium stercorarium DSM8532, Genbank U60580 (protein, listed as Clostridium stercorarium)
chain: MRYGYFDEKAREYVITRPDTPTPWINYIGNGKYGGIVTNTGGGYSFHKDPQNRRITRYRYNNLPTDRPGRYIYVRDRLTGEYWNPGYQPVQRKLDSYRCRHGMGYTVLEGEYKGIAADVTYFVPDDRDFEIWLVQIRNLCHVERNLQVFSYAEFCFWDAIMDQQNVDWVQQINQGRYEDRLITWHPHHFKDACAFFATNAEINSFDTNLEAFIGRYRCESNPIAVETGACSNSVSYRMNGVGAFCIDVNLKPGEEREIIFILGFTENKSTIRDEIRDYLNVEYAKEALKRLKDSWEEYLDKLQIETPDRETNLFVNTWNQYQCKITFNWSRFVSMYSWGLGRGIGIRDSAQDTLGVMHSIPELAGGLIKRLIHCQYTDGRVYHLFFPLTGEGGIGDAPVVKFDWYSDDHLWLPIAANAYLKETANFDFFQSVVPYNDNKTEGTVWEHLNRAMEFTYNHRGPHALPYSRADWNDTLNLDMGNGIAETLFTSMLFSEPPLKRFRCRISDKRIATKYRYWYDEMKQAINEWCWDGEWYIRAFDDEGNVLGSGKNRYGKIFINSQSWAVLSMVAPEEYAKKCLESVYRHLNTKYGIVKVYPAYPEYNPKIGGMTTYPPGAKENGGIFAHTNPWVMIAECMMGNGRRAYQYYRQILPLTRNDDADLLEVEPYVYCQNILGKEHPQFGIGRNSWLTGTAAWNMVAVSQYILGIRPEYDGLTVDPCIPPDWKGFKVRRIFRGCVYNIEVRNPEGVRRCEKNCRRGVETDKIPVKPAGTVCECVVIMG

How the values were obtained:
[1] = molecular target: T1, cellodextrin phosphorylase from Clostridium stercorarium (CsCDP) (Thermoclostridium stercorarium, UniProt L7VUB7); assay: CsCDP activity assay (orthophosphate release, synthetic direction); assay type: biochemical; settings: for Specific activity (U/mg): acceptor specificity, 30 mM Glc1P donor; for Specific activity (U/mg) / Relative activity (%): 50 mM MES buffer pH 6.5, 50 mM of acceptor; for Relative activity (%): relative to cellobiose
Procedure: (§1) Protein concentrations were measured with the BCA Protein Assay kit from Thermo Scientific. The activity assays were performed with 5% of purified enzyme (50 μg/mL, final concentration) in 50 mM MES buffer pH 6.5, containing 30 mM donor (Glc1P) or 100 mM donor (Gal1P) and 50 mM acceptor at 45° C. Samples were inactivated for 5 minutes at 95° C. before the amount of orthophosphate (Pi) was measured by the method of Gawronski and Benson, 2004. The Km and kcat values in the kinetic study were calculated from a Hanes-Woolf plot.

[2] = molecular target: T1, cellodextrin phosphorylase from Clostridium stercorarium (CsCDP); assay: as above; assay type: biochemical; settings: 20 mM of acceptor, 45° C. and pH 6.5
[3] = molecular target: T1, cellodextrin phosphorylase from Clostridium stercorarium (CsCDP); assay: Kinetic study of the synthetic reaction of CsCDP (Hanes-Woolf plot); assay type: biochemical; settings: donor substrate instead of Glc1P
Procedure: as §1

[4] = substrate: O=P(O)(O)O[C@H]1O[C@H](CO)[C@@H](O)[C@H](O)[C@H]1O; assay: as above; assay type: biochemical, Clostridium stercorarium; settings: other: synthetic reaction, 50 mM MES buffer pH 6.5 at 45° C.
[5] = substrate: CCCCCCCCO[C@@H]1O[C@H](CO)[C@@H](O)[C@H](O)[C@H]1O; assay: as above; assay type: biochemical, Clostridium stercorarium; settings: other: synthetic reaction, 50 mM MES buffer pH 6.5 at 45° C.
[6] = substrate: O=P(O)(O)O[C@H]1O[C@H](CO)[C@H](O)[C@H](O)[C@H]1O; assay: as above; assay type: biochemical, Clostridium stercorarium; settings: other: synthetic reaction, 50 mM MES buffer pH 6.5 at 45° C.
[7] = substrate: O=[N+]([O-])c1ccc(O[C@@H]2O[C@H](CO)[C@@H](O)[C@H](O)[C@H]2O)cc1; assay: as above; assay type: biochemical, Clostridium stercorarium; settings: other: synthetic reaction, 50 mM MES buffer pH 6.5 at 45° C.

| Molecule | activity of CsCDP towards the substrate (in words) [1] | Specific activity (U/mg) ([1]; 45° C.) | Relative activity (%) ([1]; 45° C.) | other results |
| --- | --- | --- | --- | --- |
| oleoyl β-glucoside | better acceptors for CDP than cellobiose | 29.3 U/mg | 131% | Activity (%) relative to the activity on cellobiose ([2]; donor 30 mM Glc1P): 126%; Activity (%) relative to the activity on cellobiose ([2]; donor 100 mM Gal1P): 11% |
| Lactose | absolutely no activity could be detected; also recorded: inactive | – | – | – |
| OC[C@H]1O[C@@](CO)(O[C@H]2O[C@H](CO)[C@@H](O)[C@H](O)[C@H]2O)[C@@H](O)[C@@H]1O [Sucrose] | very poor acceptors | 0.7 U/mg | 3% | – |
| CCCCCCO[C@@H]1O[C@H](CO)[C@@H](O)[C@H](O)[C@H]1O [Hexyl β-glucoside] | – | 19.9 U/mg | 89% | – |
| O=[N+]([O-])c1ccc(O[C@@H]2O[C@H](CO)[C@@H](O)[C@H](O)[C@H]2O)cc1 [PNP β-glucoside, p-nitrophenyl beta-glucoside] | – | 24.7 U/mg | 110% | – |
| oleoyl β-sophoroside [Sophorolipid] | – | – | – | activity as fraction of that on cellobiose ([1]; Table 4): about one third; Activity (%) relative to the activity on cellobiose ([2]; donor 30 mM Glc1P): 36% |
| OC[C@H]1O[C@H](O[C@H]2[C@H](O)[C@@H](O)C(O)O[C@@H]2CO)[C@H](O)[C@@H](O)[C@@H]1O (mixture of isomers) [Maltose] | very poor acceptors | 0.7 U/mg | 3% | – |
| cellobiose | – | 22.4 U/mg | 100% | Activity (%) relative to the activity on cellobiose ([2]; donor 30 mM Glc1P): 100% |
| CCCCCCCCO[C@@H]1O[C@H](CO)[C@@H](O)[C@H](O)[C@H]1O [Octyl β-glucoside] | – | 20.4 U/mg | 91% | – |
| CO[C@@H]1O[C@H](CO)[C@@H](O)[C@H](O)[C@H]1O [Methyl β-glucoside] | – | 3.5 U/mg | 16% | – |
| O=P(O)(O)O[C@H]1O[C@H](CO)[C@H](O)[C@H](O)[C@H]1O [Gal1P, α-galactose-1-phosphate] | active | – | – | efficiency on Gal1P as donor, times lower than on Glc1P [3]: about one thousand |
| O=[N+]([O-])c1ccc(O[C@@H]2OC[C@@H](O)[C@H](O)[C@H]2O)cc1 [PNP β-xyloside] | – | 7.5 U/mg | 33% | – |
| O=[N+]([O-])c1ccc(O[C@@H]2O[C@H](CO)[C@@H](O[C@@H]3O[C@H](CO)[C@@H](O)[C@H](O)[C@H]3O)[C@H](O)[C@H]2O)cc1 [PNP β-cellobioside] | – | 29.0 U/mg | 129% | – |
| B1 | – | – | – | Km [4]: 2438 ± 16 µM; kcat [4]: 27.4 ± 1.7 s⁻¹; kcat/Km [4]: 10000 M⁻¹ s⁻¹; Km [5]: 623 ± 26 µM; kcat [5]: 14.2 ± 0.5 s⁻¹; kcat/Km [5]: 20000 M⁻¹ s⁻¹; Km [6]: 31130 ± 683 µM; kcat [6]: 2.5 ± 0.1 s⁻¹; kcat/Km [6]: 100 M⁻¹ s⁻¹; Km [7]: 640 ± 38 µM; kcat [7]: 19.6 ± 1 s⁻¹; kcat/Km [7]: 30000 M⁻¹ s⁻¹ |
| B2 | – | – | – | optimal temperature for activity in the direction of glycoside synthesis ([1]; 50 mM cellobiose, 30 mM Glc1P, 50 mM MES buffer pH 6.5): ~65 °C; optimal pH for activity in the direction of glycoside synthesis ([1]; 50 mM cellobiose, 30 mM Glc1P, 50 mM MES buffer, 45° C.): around 6.5; specific activity of the purified enzyme ([1]; His6-tagged purified CsCDP, cellobiose acceptor): 22.4 U/mg |
